Test results as given in patent US20240059729A1, “MULTIFUNCTIONAL CYCLIC DINUCLEOTIDE AND USE THEREOF” (TYLIGAND BIOSCIENCE (SHANGHAI) LIMITED, priority 2020, published 2024).
Where a name gives a salt, the structure may show the parent alone.

Tests used:
CT26 cells = assay: Anti-tumor activity in bilateral transplantation tumor model of CT26 syngeneic mouse; assay type: in vivo, BALB/c mice; conditions: Day 0 and Day 4; for Growth inhibition rate, untreated left tumor: Day 13 post-dose, 50 μg/mouse intratumorally right side; for Inhibition of tumor growth, treated right-side tumor: Day 13 post-dosing, 50 μg/mouse (2.5 mg/kg) intratumorally right side
Description: BALB/c mice of 6-8 weeks (purchased from Shanghai Ling Chang Biotech Co., Ltd.) were inoculated with 5×10^5 CT26 cells (supplied by Taicang Zexin Biotechnology Co., Ltd., ATCC #CRL-2638) subcutaneously on the left and right back dorsal, respectively, and the inoculation volume was 0.1 mL/side. When tumors grew to an average volume of 100 mm^3, they were randomized according to tumor size and mouse body weight and dosing was initiated. The day of the first dose was Day 0.
Two doses were administered on Day 0 and Day 4, with 50 μg of compound/mouse (i.e., 2.5 mg/kg) injected intratumorally right side, with the same volume of PBS (Hyclone, Cat #SH30258.01) as a control. The tumor on the left side was not treated. The control mice were sacrificed 13 days and the treated mice were sacrificed 21 days, after dosing. During the experiment, tumor volumes on the left and right sides and the body weights were measured 3 times per week, and the tumor volume was calculated as V=D×d×d/2 (where D represents length of tumor and d represents width of tumor).

[1] = tested on: IFN-β secretion by THP-1 cells; assay: Activation of IFN-β secretion by THP-1 cells (Human IFN-beta ELISA); assay type: cell-based; conditions: for EC50 / Activating effect on IFN-β secretion / STING agonist activity (in words): THP-1 cells; for EC50: 24 hours, IFN-β ELISA; for Activating effect on IFN-β secretion / STING agonist activity (in words): EC50 compared with 2′,3′-cGAMP and ADU-S100; for Highest concentration of IFN-β secreted by stimulated THP-1 cells: compared with ADU-S100
Description: THP-1 cell, a human monocytic leukemia cell line, has the STING phenotype of HAQ type, i.e., R71H-G230A-R293Q. This assay used the Human IFN-beta DuoSet ELISA Kit from R & D (R & D, Cat #DY814-05) and the DuoSet ELISA Ancillary Reagent Kit 2 (R & D, Cat #DY008) to evaluate the activation of IFN-β secretion from THP-1 cells by representative compounds of the invention.
In thawing the THP-1 cells (ATCC #TIB-202), a cell freezing tube was quickly shaken in a water bath at 37° C. to thaw the cells within 1 min. The thawed cell suspension was taken and evenly mixed with an RPMI1640 medium (Hyclone, product #SH30027.01) containing 10% FBS (Life Technology, Cat #10099-141), centrifuged for 5 min at 1000 rpm, and the supernatant was discarded. The cell pellet was resuspended in 5 mL of the complete medium (RPMI 1640 medium containing 10% FBS), placed into a cell culture flask with a bottom area of 25 cm^2, and incubated in a cell incubator at 37° C., 5% CO2 and 95% humidity. When the cell confluence reached about 80%, the cells were passaged. All the cells in the culture flask were transferred to a 15 mL centrifuge tube, centrifuged for 5 min at 1000 rpm, and the supernatant was discarded. 5 mL of fresh complete medium was added to re-suspend the cell pellet, 1 mL of which was taken to place in a cell culture flask with a bottom area of 25 cm^2, supplemented with 4 mL of fresh complete medium for further incubation. When the cell confluence reached about 80% again, plating was conducted following the procedure of cell passage, retaining 1/5 cell suspension for further inculation and remaining 4/5 of the cell suspension in a 15 mL centrifuge tube. The cell suspension was centrifuged to discard the old culture medium, washed once using RPMI1640 culture medium (serum-free), and centrifuged to remove the supernatant. The cells were then re-suspended in RPMI1640 culture medium (serum-free). Cell viability was then detected by Trypan blue exclusion test and to be used for plating when the cell viability was confirmed to be more than 95%. A cell suspension with a density of 1.1×10^6 viable cells/mL was prepared using RPMI1640 culture medium (serum-free), and 180 μL of the cell suspension was added to a 96-well cell culture plate (NUNC Company, Cat #167008) so that the cell density in the plate was 2×10^5 viable cells/well.
A 10 mM stock solution of the compounds in DMSO was first serially diluted at 3.16-fold with DMSO (Sigma, Cat #D2650) to the 5th concentration, and the 6th concentration was set as DMSO control (compound-free). Then, the DMSO solutions containing different concentrations of the compounds were diluted at 10-fold with PBS so that the DMSO content in each compound solution of various concentrations was 10%. Finally, 20 μL of each of such solutions was added into corresponding cell culture plate to provide an initial compound concentration of 100 μM, with the dilution fold of adjacent concentrations being 3.16 and the DMSO content in the cell culture plate being 1%. The cell plate was placed in a cell incubator for further 24 hours.
ELISA detection was conducted referring to the instructions from R & D System, Cat #DY814-05.
ELISA plate coating: PBS (R & D System Cat #DY006) was used to dilute the capture antibody (mouse anti-human IFN-β capture antibody PART #844508) to provide the working concentration, and 100 μL capture antibody working solution was added to a 96-well ELISA plate which was then sealed and incubated overnight at room temperature. Upon discarding the capture antibody working solution, the cell plate was washed 3 times with a washing buffer (0.05% Tween-20 in PBS, pH 7.2-7.4, R & D System Cat #WA126) at 400 μL of the washing buffer per well, and the washing buffer was thoroughly removed after each washing, with the final washing to be completely removed of the wash buffer by inverting and claping the plate to a clean piece of paper. […]

SMILES	Growth inhibition rate, untreated left tumor (CT26 cells) [%]	Inhibition of tumor growth, treated right-side tumor (CT26 cells) [%]	EC50 [1] [µM]	EC50 ([1]; Homo sapiens, THP-1, 24 h) [µM]	Activating effect on IFN-β secretion / STING agonist activity (in words) [1]	Highest concentration of IFN-β secreted by stimulated THP-1 cells [1]
Nc1ncnc2c1ncn2[C@@H]1O[C@@H]2COP(=O)([S-])O[C@@H]3[C@H](O)[C@@H](COP([O-])(=S)O[C@H]2[C@H]1O)O[C@H]3n1cnc2c(N)ncnc21.[Na+].[Na+] (stereo partly drawn) [ADU-S100, reference compound]	64.2	99.1	1 to 10	–	–	–
Nc1nc2c(ncn2[C@@H]2O[C@@H]3CO[P@@](=O)(S)OC4C(F)[C@H](n5cnc6c(N)nc(Cl)nc65)O[C@@H]4CO[P@@](=O)(S)OC2C3O)c(=O)[nH]1 (stereo partly drawn) [Example 10, (2′,3′)-cyclo-(Rp,Rp)-[2′-O-phosphorothioate-diester-guanosine]-[3′-O-phosphorothioate-diester-2-chloro-2′-deoxy-2′-fluoro-beta-adenosine] diammonium salt]	91.2	–	–	1 to 10	significant STING agonist activity	higher than that of ADU-S100
Nc1nc2c(ncn2[C@@H]2O[C@@H]3CO[P@@](=O)(S)OC4C(F)[C@H](n5cnc6c(N)nc(Cl)nc65)O[C@@H]4CO[P@@](=O)(S)OC3C2O)c(=O)[nH]1 (stereo partly drawn) [Example 17, diammonium salt]	67.4	99.5	–	1 to 10	significant STING agonist activity	higher than that of ADU-S100
